Assay [1] addresses T1, Receptor tyrosine-protein kinase erbB-2 (Homo sapiens, UniProt P04626). Kind of assay: Inhibition of HER2 in human SKBR3 cells by HTRF assay. (In general: Time-resolved FRET reads energy transfer from a long-lived donor to a nearby acceptor.)
The target in assay [2] is T2, Epidermal growth factor receptor (Homo sapiens, UniProt P00533). Kind of assay: Inhibition of EGFR in human A431 cells by HTRF assay.
The target of assay [3] is T2, Epidermal growth factor receptor. Kind of assay: Inhibition of EGFR by HTRF assay.
Assay [4] concerns the target T1, Receptor tyrosine-protein kinase erbB-2. Kind of assay: Inhibition of HER2 by HTRF assay.

A word on the IC50: it is the concentration that gives 50% inhibition. Read a low IC50 as greater potency.

T2 sequence (P00533 whole entry): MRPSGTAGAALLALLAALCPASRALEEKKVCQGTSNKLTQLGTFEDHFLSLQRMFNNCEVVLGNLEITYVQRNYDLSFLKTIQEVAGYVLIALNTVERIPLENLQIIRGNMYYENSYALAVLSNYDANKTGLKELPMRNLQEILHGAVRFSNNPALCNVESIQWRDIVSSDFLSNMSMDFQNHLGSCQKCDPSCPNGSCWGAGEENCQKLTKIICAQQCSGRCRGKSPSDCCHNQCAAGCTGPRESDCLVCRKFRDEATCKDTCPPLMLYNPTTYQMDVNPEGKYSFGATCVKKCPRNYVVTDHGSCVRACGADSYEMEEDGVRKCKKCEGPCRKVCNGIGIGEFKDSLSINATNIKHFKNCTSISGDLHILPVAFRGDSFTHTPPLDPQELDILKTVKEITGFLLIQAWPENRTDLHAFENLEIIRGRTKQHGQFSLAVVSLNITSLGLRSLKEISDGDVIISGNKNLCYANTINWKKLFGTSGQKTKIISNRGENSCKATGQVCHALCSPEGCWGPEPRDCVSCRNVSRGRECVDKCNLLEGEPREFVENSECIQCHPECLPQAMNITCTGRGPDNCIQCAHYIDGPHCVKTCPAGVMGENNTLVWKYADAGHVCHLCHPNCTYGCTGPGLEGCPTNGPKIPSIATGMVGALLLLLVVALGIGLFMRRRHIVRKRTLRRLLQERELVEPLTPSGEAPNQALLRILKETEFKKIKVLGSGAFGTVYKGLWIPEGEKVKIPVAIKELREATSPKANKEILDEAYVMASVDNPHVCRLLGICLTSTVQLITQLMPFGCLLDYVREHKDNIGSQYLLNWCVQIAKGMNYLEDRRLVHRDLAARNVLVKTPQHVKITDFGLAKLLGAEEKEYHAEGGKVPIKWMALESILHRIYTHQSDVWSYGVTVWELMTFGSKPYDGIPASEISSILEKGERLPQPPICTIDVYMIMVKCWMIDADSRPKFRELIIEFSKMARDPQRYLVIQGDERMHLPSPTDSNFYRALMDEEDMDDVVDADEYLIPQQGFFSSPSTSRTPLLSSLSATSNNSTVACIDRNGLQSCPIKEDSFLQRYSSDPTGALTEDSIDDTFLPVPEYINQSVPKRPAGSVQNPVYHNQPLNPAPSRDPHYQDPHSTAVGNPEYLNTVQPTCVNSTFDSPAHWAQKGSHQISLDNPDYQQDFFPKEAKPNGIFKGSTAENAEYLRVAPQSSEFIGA
T1 sequence (P04626 whole entry): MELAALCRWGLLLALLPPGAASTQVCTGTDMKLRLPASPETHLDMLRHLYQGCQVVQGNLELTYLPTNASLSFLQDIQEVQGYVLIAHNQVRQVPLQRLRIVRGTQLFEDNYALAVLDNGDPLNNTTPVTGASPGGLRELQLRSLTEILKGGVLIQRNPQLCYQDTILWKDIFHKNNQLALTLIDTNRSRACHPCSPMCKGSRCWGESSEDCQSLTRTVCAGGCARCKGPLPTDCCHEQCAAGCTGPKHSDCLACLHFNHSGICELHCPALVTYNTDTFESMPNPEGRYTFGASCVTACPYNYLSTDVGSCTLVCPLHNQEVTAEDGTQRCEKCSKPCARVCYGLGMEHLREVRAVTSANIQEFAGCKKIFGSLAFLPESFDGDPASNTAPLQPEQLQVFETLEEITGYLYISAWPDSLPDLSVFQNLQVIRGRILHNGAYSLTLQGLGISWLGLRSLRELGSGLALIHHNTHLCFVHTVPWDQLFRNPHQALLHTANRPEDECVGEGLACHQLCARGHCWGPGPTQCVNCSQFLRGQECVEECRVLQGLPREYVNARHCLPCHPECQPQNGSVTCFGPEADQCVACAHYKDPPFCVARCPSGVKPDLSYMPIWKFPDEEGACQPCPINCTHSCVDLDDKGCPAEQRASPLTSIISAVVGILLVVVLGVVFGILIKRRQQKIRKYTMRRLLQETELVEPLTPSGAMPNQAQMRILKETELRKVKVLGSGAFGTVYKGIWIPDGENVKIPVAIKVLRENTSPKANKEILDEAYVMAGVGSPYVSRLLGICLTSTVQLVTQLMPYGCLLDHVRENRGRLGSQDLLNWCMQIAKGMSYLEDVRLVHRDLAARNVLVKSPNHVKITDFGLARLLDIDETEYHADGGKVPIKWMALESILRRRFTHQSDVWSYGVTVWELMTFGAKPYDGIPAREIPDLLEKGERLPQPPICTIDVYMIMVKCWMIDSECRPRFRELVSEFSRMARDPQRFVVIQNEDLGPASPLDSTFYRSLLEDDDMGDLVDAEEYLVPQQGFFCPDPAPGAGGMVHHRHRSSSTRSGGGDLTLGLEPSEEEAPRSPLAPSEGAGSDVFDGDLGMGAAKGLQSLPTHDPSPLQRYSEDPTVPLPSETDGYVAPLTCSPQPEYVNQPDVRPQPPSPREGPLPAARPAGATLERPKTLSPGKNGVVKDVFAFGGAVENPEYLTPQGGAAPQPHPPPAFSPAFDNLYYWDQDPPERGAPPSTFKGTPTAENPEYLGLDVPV

As to `CCOC(=O)c1[nH]c(C)c2cnnc(Nc3ccc(OCc4cccc(F)c4)c(Cl)c3)c12`, the IC50 in assay [1] is 934 nM; in assay [2] it was 1210 nM; in assay [3] it was over 10000 nM.

In turn, `Cc1c(C(=O)NCCN2CCOCC2)[nH]c2cnnc(Nc3ccc(OCc4ccccn4)c(Cl)c3)c12` gave an IC50 in assay [1] of over 5000 nM.

Regarding `Cc1c(C(=O)NCCCN2CCN(C)CC2)[nH]c2cnnc(Nc3ccc(OCc4cccc(F)c4)c(Cl)c3)c12`, the values for the IC50 in assay [1], in assay [2] and in assay [3] were 2240 nM, 980 nM and over 10000 nM, respectively.

Regarding `O=C(NCCN1CCCC1)c1cc2cnnc(Nc3ccc(OCc4cccc(F)c4)c(Cl)c3)c2[nH]1`, the IC50 in assay [1] was 620 nM; in assay [2], 15100 nM; in assay [3] it was over 10000 nM.

Take `Cc1c(C(=O)NCCN2CCOCC2)[nH]c2cnnc(Nc3ccc(OCc4cccc(F)c4)c(Cl)c3)c12`: the IC50 in assay [1] was over 5000 nM; in assay [4], 4 nM; in assay [2] it was 12700 nM; in assay [3], 5000 nM.

On to `Cc1c(C(=O)NCCN2CCN(C)CC2)[nH]c2cnnc(Nc3ccc(OCc4cccc(F)c4)c(Cl)c3)c12`, for which the results for the IC50 in assay [1], in assay [2] and in assay [3] were 843 nM, 257 nM and over 10000 nM, respectively.

Consider `CCN(CC)CCNC(=O)c1cc2cnnc(Nc3ccc(OCc4cccc(F)c4)c(Cl)c3)c2[nH]1`, for which the IC50 in assay [1] is 3840 nM; in assay [2], 77200 nM; in assay [3], over 10000 nM.

Take `CCN(CC)CCNC(=O)c1[nH]c2cnnc(Nc3ccc(OCc4cccc(F)c4)c(Cl)c3)c2c1C`: the IC50 turned out to be 960 nM in assay [1], 7 nM in assay [4], 1160 nM in assay [2] and 1280 nM in assay [3].

Values taken from ChEMBL document CHEMBL1154343, “Synthesis and biological evaluation of pyrrolopyridazine derivatives as novel HER-2 tyrosine kinase inhibitors” (Bioorg Med Chem Lett, 2009).
